Data taken from ChEMBL document CHEMBL3352446, “Sulforaphane homologues: Enantiodivergent synthesis of both enantiomers, activation of the Nrf2 transcription factor and selective cytotoxic activity” (Eur J Med Chem, 2014).
Activity calls are given as the source filed them. The rule behind the calls is not given here.

How the values were obtained:
[1] = target: T1, Nuclear factor erythroid 2-related factor 2 (Homo sapiens) (UniProt Q16236); assay: Activation of NRF2 in human HaCaT cells expressing rat NQO1 assessed as induction of NQO1 expression at 50 nM to 5 uM incubated for 24 hrs by ARE-driven luciferase reporter gene assay; assay type: cell-based
T1 sequence (whole entry): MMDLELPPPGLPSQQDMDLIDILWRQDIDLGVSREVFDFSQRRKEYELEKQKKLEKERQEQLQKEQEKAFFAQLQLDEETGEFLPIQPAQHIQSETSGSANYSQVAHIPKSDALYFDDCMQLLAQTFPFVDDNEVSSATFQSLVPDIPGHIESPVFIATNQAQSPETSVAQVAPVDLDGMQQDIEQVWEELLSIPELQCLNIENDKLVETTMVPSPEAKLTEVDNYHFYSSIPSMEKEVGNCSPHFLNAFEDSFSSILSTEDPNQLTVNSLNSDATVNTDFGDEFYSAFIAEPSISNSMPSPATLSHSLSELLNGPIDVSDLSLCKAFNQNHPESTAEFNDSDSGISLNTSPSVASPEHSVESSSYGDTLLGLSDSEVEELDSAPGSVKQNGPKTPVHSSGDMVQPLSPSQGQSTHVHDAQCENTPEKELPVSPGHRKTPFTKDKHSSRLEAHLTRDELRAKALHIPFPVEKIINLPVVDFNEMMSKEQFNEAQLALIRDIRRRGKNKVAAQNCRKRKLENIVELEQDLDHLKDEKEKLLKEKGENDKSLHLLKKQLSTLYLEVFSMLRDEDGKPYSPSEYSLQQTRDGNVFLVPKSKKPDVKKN

HaCaT [2] = assay: Toxicity in human HaCaT cells expressing rat NQO1 assessed as reduction in cell viability at 50 uM incubated for 24 hrs by MTT assay; assay type: cell-based
HaCaT [3] = assay: Toxicity in human HaCaT cells expressing rat NQO1 assessed as reduction in cell viability at 500 uM incubated for 24 hrs by MTT assay; assay type: cell-based
A549 [4] = assay: Cytotoxicity against human A549 cells assessed as reduction in cell viability after 48 hrs by MTT assay; assay type: functional, cell-based; settings: A549, 48 h
MRC5 [5] = assay: Cytotoxicity against human MRC5 cells assessed as reduction in cell viability after 48 hrs by MTT assay; assay type: cell-based; settings: MRC5, 48 h
A549 [6] = assay: Cytotoxicity against human A549 cells assessed as reduction in cell viability at 10 uM after 48 hrs by inverted microscopy; assay type: functional
MRC5 [7] = assay: Cytotoxicity against human MRC5 cells assessed as reduction in cell viability at 10 uM after 48 hrs by inverted microscopy; assay type: cell-based; settings: mrc5, 48 h
[8] = Cytotoxicity against human MRC5 cells assessed as cell viability at 10 uM after 48 hrs by inverted microscopy; assay type: cell-based; settings: read-out: Activity

Question: Which Activity [1] does the source give for `C[S@+]([O-])CCCCCCN=C=S` here?
Answer: Active

Question: Which results are given for `C[S@+]([O-])CCCCCN=C=S`?
Answer: Activity [1]: Active; Activity (HaCaT [2]): Toxic; Activity (HaCaT [3]): Toxic; IC50 (A549 [4]): 12 µM; IC50 (MRC5 [5]): 20.2 µM

Question: With `C[S@@+]([O-])CCCCCCN=C=S` as the compound, how does the Activity [1] read?
Answer: Active

Question: With `CC(O)C(=O)O` (configuration not stated) [LACTIC ACID] as the compound, how does the IC50 (A549 [4]) read?
Answer: 26.6 µM

Question: And the IC50 (MRC5 [5])?
Answer: 23.9 µM

Question: Which Activity [1] does the source give for `C[S@@+]([O-])CCCCCN=C=S` here?
Answer: Active

Question: And the Activity (HaCaT [2])?
Answer: Toxic

Question: What about the Activity (HaCaT [3]) of the same compound?
Answer: Toxic

Question: And the IC50 (A549 [4])?
Answer: 9.62 µM

Question: And the IC50 (MRC5 [5])?
Answer: 18.5 µM

Question: Which Activity [1] does the source give for `CC[S@@+]([O-])CCCCN=C=S` (racemic) here?
Answer: Active

Question: What about the Activity (HaCaT [2]) of the same compound?
Answer: Toxic

Question: And the Activity (HaCaT [3])?
Answer: Toxic

Question: And the IC50 (A549 [4])?
Answer: 19.8 µM

Question: What about the IC50 (MRC5 [5]) of the same compound?
Answer: 40.8 µM

Question: Which Activity [1] does the source give for `C[S@@](=O)CCCCN=C=S` [SULFORAPHANE] here?
Answer: Active

Question: What about the Activity (HaCaT [2]) of the same compound?
Answer: Toxic

Question: What about the Activity (HaCaT [3]) of the same compound?
Answer: Toxic

Question: And the IC50 (A549 [4])?
Answer: 19.6 µM

Question: And the IC50 (MRC5 [5])?
Answer: 46.6 µM

Question: For `CCCC[S@@+]([O-])CCCCN=C=S`, which Activity [1] is on record?
Answer: Active

Question: What about the Activity (HaCaT [2]) of the same compound?
Answer: Toxic

Question: And the Activity (HaCaT [3])?
Answer: Toxic

Question: What about the IC50 (A549 [4]) of the same compound?
Answer: 9.77 µM

Question: And the IC50 (MRC5 [5])?
Answer: 17.4 µM

Question: And the “growth inhibition (GI)” value (A549 [6])?
Answer: Active

Question: What about the “growth inhibition (GI)” value (MRC5 [7]) of the same compound?
Answer: Non-toxic

Question: And the viability at 48 h, 10 µM [8]?
Answer: 90%
